Measured values reported in patent US4818684A, “Auto-anti-idiotypic monoclonal antibodies to steroid receptors and uses thereof” (The Trustees of Columbia University in the City of New York, priority 1985, dated 1989).

How the values were obtained:
[1] = target: anti-steroid (unprocessed rabbit serum 540); assay: Competitive inhibition of binding of [3H] triamcinolone to anti-steroid, unprocessed rabbit serum 540; conditions: for Kd: read-out: Competitive inhibition of binding of [3H] triamcinolone, Rabbit Serum 540 Unprocessed (apparent Kd)
Method: FIG. 4. […] See legend to Table 1 for the experimental procedure.
New Zealand white rabbits were immunized by multiple intradermal injections of a total of 1 ml of triamcinolone-BSA (2 mg/ml) in saline emulsified with an equal volume of complete Freunds adjuvant. Booster injections were given three weeks later and then at monthly intervals. Animals were bled bi-weekly from the ear vein and the sera stored at 4° C. until required.

[2] = target: affinity purified antisteroid; assay: Competitive inhibition of binding of [3H] triamcinolone to affinity purified antisteroid; parameters: species or system rabbit; conditions: for Kd: read-out: Competitive inhibition of binding of [3H] triamcinolone, Affinity purified (apparent Kd)
Method: Thirty to 40 ml of serum obtained in part (a) of this example were passed slowly (±3.5 ml/hr) through the AH-Sepharose 4B triamcinolone column prepared according to (b) above. After washing with PBS to remove all unbound protein, the antibody was eluted with 0.2 M glycine pH 2.2 or 2.8. The eluate was dialyzed against 2 liters, 0.01 M PBS buffer pH 7.4 and the buffer changed at least 4 times before concentrating by vacuum dialysis at 4° C.
the glucocorticoid receptor, unprocessed rabbit serum 540, affinity
purified antisteroid and antisteroid Fab fragments. Assays with the […]

[3] = target: antisteroid Fab fragments; assay: Competitive inhibition of binding of [3H] triamcinolone to antisteroid Fab fragments; conditions: read-out: Competitive inhibition of binding of [3H] triamcinolone, Rabbit serum 541 Fab fragments (apparent Kd)
Method: To the dialysate was added 0.1 M dithiothreitol (DTT) (15 microliters) EDTA (2 mg) and 0.2 mg mercuripapain (5 microliters) and the solution was incubated overnight at 37° C. It was then dialyzed against 4 l distilled H2 O for 3 hrs and then against 1 liter of PBS for 2 hrs and then applied to a Sephadex G100 column (1×5×90 cms) and eluted (±5 ml/hr) with 0.01 M PBS pH 7.4. One ml fractions were collected. Fractions 53-79 were combined and examined at 280 nm for protein content. Undigested IgG and Fc fragments were removed by passage through a protein A Sepharose column (5 ml bed volume); unbound Fab was eluted with 0.01 M PBS pH 7.4. The eluate was concentrated by vacuum dialysis.

[4] = tested on: binding of 8G11-C6 to anti-steroid Fab fragments; assay: ELISA inhibition of binding of 8G11-C6 to anti-steroid Fab fragments; conditions: ELISA (FIGS. 7, 8, 9)
Method: Controls with no inhibitor were included.
FIG. 9. […] The method used was similar to that described in the exerimental procedure. […] 200λ of the incubation mixture was then added to microtiter wells previously coated with 10 ng anti-steroid Fab fragments and incubated for 2 hrs at 37° C.
The presence of anti-idiotypic antibodies in the hybridoma culture medium were assayed by a double antibody sandwich ELISA. […] After washing twice with 0.01 M phosphate buffer--0.14M NaCl, pH 7.4, containing 0.05% Tween-20 (PBS-Tween), the culture medium from the hybridomas was added and incubated at 37° C. for 2 hrs. The wells were washed three times with PBS-Tween and 200 microliters of 1:3,000 dilution in PBS-Tween of goat anti-mouse 1gM-1gG horseradish peroxidase (Tago) was added. After incubating 1 hr at 37°, the wells were washed three times with PBS-tween and 200 microliters substrate (7 mg o-phenylenediamine dichloride in 10 ml 0.1 M citrate-phosphate buffer, pH 4.8 containing 5 microliters of 30% H2 O2) was added. Depending on the intensity of the color, the reaction was stopped after 5-10 min by the addition of 50 microliters 8N H2 SO4 and the OD determined (Titretek) at 492 nm.

glucocorticoid receptor = target: T1, glucocorticoid receptor (Rattus norvegicus, UniProt P06536)
T1 sequence (P06536 1-795): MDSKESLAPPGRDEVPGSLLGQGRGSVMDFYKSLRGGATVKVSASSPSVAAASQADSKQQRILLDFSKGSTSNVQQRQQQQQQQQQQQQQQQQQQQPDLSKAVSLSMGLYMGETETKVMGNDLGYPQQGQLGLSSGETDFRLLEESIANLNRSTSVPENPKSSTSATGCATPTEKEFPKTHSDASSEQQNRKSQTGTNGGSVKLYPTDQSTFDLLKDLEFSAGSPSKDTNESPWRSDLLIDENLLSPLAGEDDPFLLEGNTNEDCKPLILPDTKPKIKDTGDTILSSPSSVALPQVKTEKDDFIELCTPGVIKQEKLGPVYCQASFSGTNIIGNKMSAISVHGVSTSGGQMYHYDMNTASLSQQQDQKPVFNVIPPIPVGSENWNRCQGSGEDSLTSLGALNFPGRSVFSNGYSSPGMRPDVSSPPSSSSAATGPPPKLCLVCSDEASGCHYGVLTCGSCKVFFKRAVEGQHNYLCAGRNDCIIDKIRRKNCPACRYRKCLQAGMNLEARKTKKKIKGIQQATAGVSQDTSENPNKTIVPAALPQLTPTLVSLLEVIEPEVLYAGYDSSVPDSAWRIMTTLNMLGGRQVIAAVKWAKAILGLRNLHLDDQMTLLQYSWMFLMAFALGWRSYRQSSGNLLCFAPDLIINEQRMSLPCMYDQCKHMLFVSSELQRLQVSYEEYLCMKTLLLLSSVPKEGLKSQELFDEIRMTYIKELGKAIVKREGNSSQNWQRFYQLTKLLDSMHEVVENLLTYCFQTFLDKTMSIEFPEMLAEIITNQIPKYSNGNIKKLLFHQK
Method: Incubate in a total volume of 500 microliters, for 2 hrs at 4° C. 20 mM HEPES buffer containing 50 mM NaCl, 1 mM EDTA, 10% glycerol 0.1 mM DTT pH 7.6, 10nM [3H]TA and 200 microliters rat liver cytosol. Add 250 microliters 5% charcoal/dextran solution and after 10 min centrifuge and determine the radioactivity in 200 λaliquot.
Four to 6 days after 150-200 g Sprague-Dawley male rats were adrenalectomized, they were anesthesized with ether and the livers perfused in situ through the portal vein with 50 ml of cold saline. The livers were then removed, homogenized with a Teflon-glass homogenizer in 1.1 volume of 10 mM HEPES, containing 50 mM NaCl, 1 mM Na2 EDTA, 1 mM dithiothreitol (DTT) and 10% glycerol, pH 7.6, and centrifuged for 1 hr at 250,000 g at 4° C. The upper fatty layer was discarded. The supernatant was either frozen immediately in liquid-nitrogen and used for assays or labeled by incubating with 75 nM [^3 H]triamcinolone acetonide for 2 hrs at 4° C. Unbound steroid was removed with 5% dextran-coated charcoal. The [^3 H]TA labeled glucocorticoid receptor was partially purified by the method described by Gametchu & Harrison (9), the only modification being that the phosphocellulose was omitted from the first purification step.
glucocorticoid receptor included 100 ml of rat liver cytosol. 10^-8 M
[^3 H]TA and increasing concentrations of steroid in a total volume o
200 ml. […]

[5] = target: T2, binding of 8G11-C6 to partially purified glucocorticoid receptor (Rattus norvegicus, UniProt P06536); assay: ELISA inhibition of binding of 8G11-C6 to partially purified glucocorticoid receptor; conditions: ELISA (FIG. 11)
T2 construct: the glucocorticoid receptor was partially purified from rat liver cytosol; from tissue; host or cells: liver cytosol of Sprague-Dawley rats, receptor partially purified by the cited method of Gametchu & Harrison
T2 sequence (P06536 1-795): T1 sequence (P06536 1-795)
Method: FIG. 11. […] 200 microliters containing 0.54 micrograms protein of a partially purified receptor preparation in 0.1M NaHC03 pH 9.3 was added to the wells of polystyrene plates. These were incubated for 2 hrs at 37° C. Washed 2×with PBS […] 0.02% tween. […] See methods for the methodology employed. The inhibitors used were triamcinolone acetonide ( ), rabbit serum albumin ( ), and triamcinolone - RSA ( ).

[6] = target: Fab fragments of affinity purified anti-steroid antibodies; assay: Scatchard plot of binding of labeled steroid to Fab fragments of affinity purified anti-steroid antibodies; parameters: species or system rabbit; conditions: curved plot with [3H]TA, linear plot with [3H]-dexamethasone; read-out: Kd for Fab fragments of the anti-steroid, from Scatchard plots
Method: FIG. 3. Scatchard plot of the binding of [^3 H] triamcinolone to Fab fragments of affinity purified anti-steroid antibodies. Fab fragments (0.227 micrograms) were incubated with increasing concentrations of [^3 H] triamcinolone (0.4-62.5nM) in the presence of 0.01M phosphate buffered saline pH 7.4 containing 0.1% gelatin in a total volume of 200 microliters. Total and non-specific binding (50 micromoles triamcinolone acetonide) were determined for each of the [^3 H] triamcinolone levels and all points were in duplicate. After incubating 1 hr at room temperature, add 1 ml cold 5% charcoal/dextran (diluted 1:40 in 0.01M PBS containing 0.1% gelatin) and let stand on ice for 10 min. Centrifuge down the charcoal/dextran, decant the supernatant into scintillation vials and determine the radioactivity.

| Molecule | Kd [1] | Kd [2] | Kd [3] | effect on the binding of 8G11-C6 to anti-steroid Fab fragments [4] | also measured |
| --- | --- | --- | --- | --- | --- |
| C[C@]12CCC(=O)C=C1CC[C@@H]1[C@@H]2[C@@H](O)C[C@@]2(C)[C@H]1CC[C@]2(O)C(=O)CO [Hydrocortisone] | 5 µM | 100 µM | 100 µM |  |  |
| triamcinolone | 0.0032 µM | 0.015 µM | 0.015 µM | Neither triamcinolone, nor other steroids such as testosterone and estradiol-17β had any effect | Kd (glucocorticoid receptor): 0.005 µM |
| CC1(C)O[C@@H]2C[C@H]3[C@@H]4CCC5=CC(=O)C=C[C@]5(C)[C@@]4(F)[C@@H](O)C[C@]3(C)[C@]2(C(=O)CO)O1 [triamcinolone acetonide] |  |  |  | did not affect |  |
| C[C@]12CCC(=O)C[C@@H]1CC[C@@H]1[C@@H]2CC[C@]2(C)[C@@H](O)CC[C@@H]12 [Dihydrotestosterone] |  |  |  |  | Competitive inhibition of binding of [3H] triamcinolone, Rabbit Serum 540 Unprocessed (apparent Kd) [1]: had no effect |
| C[C@]12C[C@H](O)[C@H]3[C@@H](CCC4=CC(=O)CC[C@@]43C)[C@@H]1CC[C@@H]2C(=O)CO [Corticosterone] | 630 µM | 100 µM | 100 µM |  |  |
| rabbit serum albumin: carrier protein tested alone as inhibitor |  |  |  | did not affect |  |
| CC(=O)[C@H]1CC[C@H]2[C@@H]3CCC4=CC(=O)CC[C@]4(C)[C@H]3CC[C@]12C [Progesterone] | 100 µM | 100 µM | 100 µM |  |  |
| C[C@@H]1C[C@H]2[C@@H]3CCC4=CC(=O)C=C[C@]4(C)[C@@]3(F)[C@@H](O)C[C@]2(C)[C@@]1(O)C(=O)CO [Dexamethasone] | 0.12 µM | 0.62 µM | 0.63 µM |  |  |
| C[C@]12CC[C@@H]3c4ccc(O)cc4CC[C@H]3[C@@H]1CC[C@@H]2O [estradiol-17β] |  |  |  | Neither triamcinolone, nor other steroids such as testosterone and estradiol-17β had any effect | effect on the binding of 8G11-C6 to partially purified glucocorticoid receptor [5]: no effect |
| C[C@]12CC[C@H]3[C@@H](CCC4=CC(=O)CC[C@@]43C)[C@@H]1CC[C@@H]2O [Testosterone] |  |  |  | Neither triamcinolone, nor other steroids such as testosterone and estradiol-17β had any effect | Competitive inhibition of binding of [3H] triamcinolone, Rabbit Serum 540 Unprocessed (apparent Kd) [1]: not inhibited; Competitive inhibition of binding of [3H] triamcinolone, Affinity purified (apparent Kd) [2]: not inhibited; effect on the binding of 8G11-C6 to partially purified glucocorticoid receptor [5]: only a slight inhibitory effect |
| [3H]C1C2=CC(=O)C=C[C@]2(C)[C@@]2(F)[C@@H](O)C[C@@]3(C)[C@@H](C[C@@H](C)[C@]3(O)C(=O)CO)[C@@H]2C1[3H] (stereo partly drawn) [[^3 H]-dexamethasone, 6,7[^3 H] dexamethasone] |  |  |  |  | Kd [6]: 0.15 µM |
